Experimental data: patent US20210301038A1, “POLYSIALIC ACID AND DERIVATIVES THEREOF, PHARMACEUTICAL COMPOSITION AND METHOD OF PRODUCING POLYSIALIC ACID” (Medizinische Hochschule Hannover (MHH), priority 2018, published 2021)

Legend:
[1] = test system: NMDAR-EPSCs (GluN1/GluN2B receptors); assay: Evoked NMDAR-EPSCs, whole-cell patch-clamp of layer V pyramidal neurons in sham- or endoNF-treated mPFC slices; format: cell-based, mouse; conditions: endoNF-treated mPFC slices; DP1 10 μg/ml; DP5 1 μg/ml and 10 μg/ml
From the text: Each mouse was quickly sacrificed by cervical dislocation. After decapitation, the brain was rapidly removed from the skull and placed in ice-cold artificial cerebrospinal fluid (aCSF) equilibrated with 95% O2/5% CO2, which was composed of the following (in mM): 250 sucrose, 24 NaHCO3, 25 glucose, 2.5 KCl, 1.25 NaH2PO4, 2 CaCl2, and 1.5 MgCl2 (osmolarity 345-350 mOsm/kg, pH 7.4). Using a VT1200S vibratome (Leica, Nussloch, Germany), coronal slices containing the prelimbic and infralimbic cortices (1.9-1.3 mm anterior to bregma) were cut 350 μm or 400 μm thick, for patch clamp and extracellular recordings, respectively, in the same sucrose-containing aCSF. Then, the slices were transferred to a slice holding chamber filled with recording aCSF (osmolarity 300-305 mOsm/kg, pH 7.4) that contained 120 mM NaCl instead of sucrose (Eckhardt et al., 2000) and was continuously gassed with 95% O2/5% CO2.
For endoNF treatment in C57BL/6J mice, slices were first allowed to recover for 20 min at room temperature (22-24° C.) in recording aCSF and were then placed in a 24-well plate to be incubated in 2 ml of aCSF without (sham) or with addition of endoNF (10 μg/ml) at 35° C. for 2 hours. The 24-well plate was installed in a water bath (ED, Julabo, Seelbach, Germany). For field excitatory postsynaptic potential (fEPSP) recordings in knockout and transgenic mice, mPFC slices were incubated in recording aCSF for >2 hours at room temperature before recordings. For patch-clamp recordings in knockout mice, slices were incubated first at 35° C. for 20 min and then at room temperature for >30 min before recordings started. The aCSF was continuously gassed with 95% O2/5% CO2 during all incubation steps and recordings.
For whole-cell patch-clamp recordings, layer V pyramidal neurons were visualized using a SliceScope Pro 6000 equipped with a 40× water-immersion objective and infrared differential interference contrast microscopy (Scientifica, Uckfield, UK). Pyramidal cells were identified by their triangular soma and long apical dendrites, and synaptically evoked excitatory postsynaptic currents (EPSCs) were recorded using patch pipettes (3-5 MQ) fabricated using borosilicate glass capillaries (wall thickness 0.315, length 100, outer diameter 1.5 mm, Hilgenberg) and a DMZ-Zeitz puller (Zeitz Instruments GmbH, Martinsried, Germany). The intracellular pipette solution contained the following (in mM): 140.7 Cs-methane-sulfonate, 5 NaCl, 1 MgCl2, 0.2 EGTA, 10 HEPES, 3 ATP-Mg, 0.3 Na-GTP, and 3.1 QX-314 (osmolarity 295 mOsm/kg, adjusted to pH 7.2 with CsOH). EPSCs were evoked by electrical pulses (0.2 ms) at 0.033 Hz via a glass pipette placed in layer II/III of the mPFC (identically to fEPSPs). Mixed EPSCs showing a fast AMPAR-mediated component and a slow NMDAR-mediated component were recorded at a −60 mV holding potential in whole-cell voltage-clamp mode in normal aCSF. The stimulation intensity was adjusted to evoke mixed EPSCs with amplitudes of approximately 300 pA. The slow NMDAR-mediated component of EPSCs was pharmacologically isolated at −60 mV in modified aCSF containing low Mg^2+ (0.1 mM) and high Ca^2+ (3.2 mM, for adjustment of divalent cation concentrations), the selective antagonist of α-amino-3-hydroxy-5-methyl-4-isoxazolepropionic acid (AMPA)/kainate receptors NBQX (10 μM), and the selective antagonist of γ-aminobutyric acid (GABA)B receptors CGP-55845 (2 μM) (Chen et al., 2003). The washout of Mg^2+ required at least 25 min. Recordings at a holding potential near the resting membrane potential allowed us to obtain stable NMDAR-EPSC recordings from pyramidal cells lasting for 1-1.5 hours. Series resistance (Rs, range 10-25 MΩ) was compensated (20-30%) and monitored continuously. Neurons in which Rs changed by more than 20% throughout the experiment were not included in the analysis. In voltage-clamp mode, membrane potential was not corrected for liquid junction potential. […]

[2] = test system: C57BL/6J mice with intra-mPFC endoNF injection; assay: Novel object recognition test before and after intra-mPFC endoNF injection; format: in vivo, mouse; conditions: 30 min before encoding; sarcosine 600 mg/kg i.p. (d2); DP12 (d5) and DP1 (d6) 1 mg/kg intranasally
Protocol: Guide cannulas were fabricated using stainless steel tubing with outer/inner diameter Ø 0.711/0.483 mm (Science Products, Germany). Dummy cannulas were made from entomological pins, size 2, Ø 0.41 mm (FST, Germany). Chronic implantation of cannulas into the mPFC in mice was performed as described previously for intrahippocampal injections (Kochlamazashvili et al., 2012; Senkov et al., 2015; Senkov et al., 2006).
Acute injection of endoNF in vivo was done under a short isoflurane anesthesia. For intra-mPFC injection, we used a digitally controlled infusion system (UltraMicroPump, UMP3, and Micro4 Controller, WPI, USA) fed with a 10 μl-Hamilton syringe and NanoFil 135 μm (35 GA) beveled needle. The thin (135 μm) part of the needle went into the mouse brain during injection, whereas its thick part (430 μm) fit perfectly in the guide cannula (inside 483 μm). Injections were performed as follows: 1) a mouse was anesthetized with 1-3% isoflurane as during implantation; 2) it was put into the stereotaxic frame; 3) the dummy cannula was gently removed from the left guide cannula; 4) a NanoFil injecting needle was carefully placed inside of the guide cannula and advanced further down until reaching the marker (made with a permanent pen at the needle shank (430 μm) to visualize the point when the needle should reach the surface of the brain coming out of the guide cannula (equal to the length of guide cannula); 5) once the marker was reached, a slow (10 μm increment) step dial was used to deepen the needle into the brain; 6) endoNF (2 μg/μl) or vehicle was injected with the following settings: 250 nl per site as deep as 1.5 and 2.25 mm from the brain surface (total injection volume per hemisphere 500 nl, injection rate of 3 nl/s); 7) after injection was complete (˜5 min), the needle was left in the injection site for another 5 min and then gently removed; 8) the dummy cannula was then put back to its place; 9) the same procedure was performed for the right hemisphere. The whole injection process took approximately 20-25 min under isoflurane anesthesia, and the mice recovered rather quickly, starting to move in approximately 2-3 min after being returned to their home cages. Complete recovery of a mouse after such short anesthesia usually occurs within 3-5 min. After injection, mice were returned to their animal facility. Behavior experiments started on the day after injection at approximately the same time, so that we could perform cognitive tests 24 hours after injection.
A white open field arena (50×50×30 cm) was used in the novel object recognition task. All behavior was video recorded and analyzed automatically by software (ANY-maze, version 4.99, Stoelting Co., Wood Dale, Ill.). […]

NMDAR-mediated currents = conditions: cultured hippocampal neurons; cited from earlier work
5×FAD mice = assay: Recency test (increased difficulty) in 5×FAD mice; format: in vivo, mouse; conditions: intranasal, 0.5 mg/kg DP12 or equimolar, 2 hours before test; 90 min intervals
Protocol: The recency test comprised of two encoding phases followed by a retrieval phase (modified from Nelson et al., 2011). The interval between the encoding phases was 1 h, and the interval between the second encoding phase and the retrieval phase was 10 min, except for experiments in 5×FAD mice when both intervals were 90 min to make the task more difficult. In the first encoding phase, animals were placed into the open field arena and allowed to explore a pair of identical objects for 10 min. Then, a different pair of identical objects was presented in the second encoding phase (10 min total exploration time). During the retrieval phase, two different objects, one object from each encoding phase, were placed into the apparatus and animals were given 10 min to explore them.
Animals were randomly assigned to treatment groups using a randomized block design to counterbalance differences in age. The time of the day when tests were performed for different animals was also counterbalanced between treatment groups using a randomized block design. All measurements and statistical analyses were performed performed blindly, i.e. the tubes containing drugs/vehicle were coded. Exploration was defined as the animal approaching the object at a distance of less than 2 cm. The animal climbing onto the object with both hind- and forelimbs was not considered as exploration. In the same trial, objects were counterbalanced, and between trials, the placements of novel and familiar objects were changed. The objects used in the novel object recognition test were not employed in the recency test. Novelty detection was evaluated by calculating the discrimination ratio as follows: [novel object time−familiar object time]/[novel object time+familiar object time]×100%. In the recency test, the discrimination ratio was calculated as follows: [least recent object time−most recent object time]/[least object time+most recent object time]×100%. Unreliable measurements (about 10%), when animals spent in total ≤10 s near to both objects, were excluded from analysis.
As the recency test was consistently used for analysis of DP12 effects in other mouse models, it was further investigated whether 13- to 14-month-old 5×FAD mice are impaired in this form of memory. In this series of experiments, the intervals between each session during recency test were increased to 90 min to increase the difficulty to recall the temporal order of the two objects shown in the arena (FIG. 12(A)). […] To verify whether DP12 or avDP10-9OAc may improve cognitive function in the 5×FAD model of AD, these compounds or a vehicle (H2O) were intranasally delivered in the same cohort of 5×FAD mice before multiple recency test sessions (separated by 4 day-interval). The numbers of mice in each treatment group during one session were counterbalanced and each mouse received in a random order both drugs and the vehicle. […] In contrast, vehicle-treated 5×FAD mice explored the two objects equally (FIG. 12(C)).

[3] = test system: dissociated hippocampal cultures (primary neural cells); assay: MTT assay of neural cell viability; format: cell-based, mouse; conditions: 30 to 1000 nM, 48 hours, from 10th day in vitro; DP10 effect at 30, 100 and 300 nM
Protocol: Primary hippocampal cells were dissociated from embryonic mice on embryonic day 18. To prepare the primary neural cultures, pregnant C57/BL6J mice were sacrificed by cervical dislocation. Embryos were decapitated, and the hippocampi isolated from brains under sterile conditions and dissected. Enzymatic digestion by 0.25% trypsin/EDTA solution was followed by separation of the cells in serum-containing medium via trituration (10 passes, 1 ml pipette). The primary cells were seeded onto 96-well plates coated with 100 μg/ml poly-lysine and 20 μg/ml laminin. The plating density was 20,000 cells per well. First, 200 μl Dulbecco's modified Eagle's medium (DMEM) was applied per well (supplemented with 1% penicillin-streptomycin and 1% L-glutamine and 2% B27). After incubation for 2 h at 37° C./5% CO2, the medium was exchanged with the pre-warmed Neurobasal medium including 1% penicillin-streptomycin, 1% L-glutamine, and 2% B27. The cells—predominantly neurons and astrocytes—were incubated at 37° C. in 5% CO2 humidified atmosphere for 10 days before administration of reagents.
The assay was performed as described elsewhere with minor modifications (Khalid et al., 2018). Primary neural cells (see above) grown in a 96-well plate were exposed to drugs/vehicles for 48 h at 37° C./5% CO2. After aspiration of culture media, a washing was done with 100 μl phosphate buffered saline (PBS, pH=7.2). Then, PBS was completely removed, and 100 μl phenol red-free pre-warmed Neurobasal media and 50 μl MTT solution (3-(4,5-dimethylthiazol-2-yl)-2,5-diphenyltetrazolium bromide, 5 mg/ml; dissolved in PBS) were added to each well and plates were incubated for 4 h in an incubator. […] DMSO destroyed the cells and released the formazan, which was detected by optical density value at 560 nm, measured using a plate reader. Optical density values for wells containing cells were corrected by subtracting values measured in cell-free wells prepared and treated in the same way as wells containing control cells.

| Compound | effect on the amplitude of NMDAR-EPSCs [1] | novel object recognition after intra-mPFC endoNF injection [2] | inhibition of NMDAR-mediated currents (NMDAR-mediated currents) | exploration of least recent versus most recent object in the retrieval phase (5×FAD mice) | object discrimination (discrimination ratio) compared to vehicle (5×FAD mice) | effect on neural cell viability [3] |
| --- | --- | --- | --- | --- | --- | --- |
| CC(=O)N[C@H]1[C@H]([C@H](O)[C@H](O)CO)OC(O)(C(=O)O)C[C@@H]1O (stereo partly drawn) [DP1, N-acetylneuraminic acid] | no effect | no effect | do not inhibit | – | – | – |
| (α(2→8)Neu5Ac)10 [DP10] | – | – | – | preference for the least recently explored object | significantly better in object discrimination | strong potentiating effect |
